# pIC50: −log10 of the molar value.
# Target: T1, purified human Hsp90
# T1 construct: purified human Hsp90 (Stressgen, SPP-770)
# Assay: Hsp90 binding assay: displacement of BODIPY-labeled geldanamycin measured by fluorescence polarization
# Conditions: BODIPY-GM 10 nM, Hsp90 30 nM, overnight at room temperature; read-out: GM displacement from purified Hsp90 measured by FP IC 50
# Protocol: Binding of the Example Compounds to purified Hsp90 was assayed by measuring the displacement of BODIPY-labeled geldanamycin (BODIPY-GM) from purified human Hsp90, using a fluorescence polarization assay adapted from Kim et al. (J. Biomolec. Screening, 9(5):375-381 (2004)). Compound dilutions (in 100% DMSO) were added to black-bottom 96-well plates (Greiner Bio-One, Monroe, N.C.) in 2% DMSO final, and equal volumes of BODIPY-GM (10 nM final) and purified human Hsp90 (Stressgen, SPP-770; 30 nM final) (Assay Designs, Ann Arbor, Mich.) in assay buffer (20 mM HEPES-KOH pH 7.3, 50 mM KCl, 5 mM MgCl2, 20 mM Na2MoO4, 0.01% NP-40, 0.1 mg/mL bovine gamma globulin [P2045; Invitrogen, Carlsbad, Calif.], 2 mM DTT) were added sequentially to yield a final volume of 50 microliters. Plates were incubated overnight at room temperature. Parallel and perpendicular fluorescence measurements were read (Analyst AD plate reader; LJL BioSystems, Middletown, Conn.) with excitation/emission wavelengths of 485/530 nm. Background fluorescence (buffer only) was subtracted, and fluorescence polarization (FP) values, expressed in mP units, were calculated from parallel and perpendicular fluorescence readings as follows:
# FP=(parallel−perpendicular)/(parallel+perpendicular)*1000.
# Percent inhibition was calculated by normalizing the FP values to those obtained in parallel reactions containing DMSO and subtracting these normalized values from 100%. Intrinsic compound fluorescence was independently monitored, and FP data points confounded by compound fluorescence were excluded from the analysis.
row,pIC50,Compound
1,7.46,"C[C@H](O)C(=O)N1CCC(CCn2c(Sc3cc4c(cc3Br)CCO4)nc3c(N)ncnc32)CC1 [Example Compound 173, (2S)-1-[4-(2-{6-Amino-8-[(5-bromo-2,3-dihydro-1-benzofuran-6-yl)thio]-9H-purin-9-yl}ethyl)piperidin-1-yl]-1-oxopropan-2-ol]"
2,6.82,"COC(=O)c1cc2c(cc1Sc1nc3c(N)ncnc3n1CCC1CCNCC1)OCO2 [Example Compound 174, Methyl 6-{[6-amino-9-(2-piperidin-4-ylethyl)-9H-purin-8-yl]thio}-1,3-benzodioxole-5-carboxylate]"
3,7.15,"CCOC(=O)c1cc2c(cc1Sc1nc3c(N)ncnc3n1CCC1CCNCC1)OCO2 [Example Compound 175, ethyl 6-{[6-amino-9-(2-piperidin-4-ylethyl)-9H-purin-8-yl]thio}-1,3-benzodioxole-5-carboxylate]"
4,6.05,"Nc1ncnc2c1nc(Sc1cc3ccoc3cc1Br)n2CCC1CCN(C=O)CC1 [Example Compound 176, 4-(2-{6-Amino-8-[(6-bromo-1-benzofuran-5-yl)thio]-9H-purin-9-yl}ethyl)piperidine-1-carbaldehyde]"
5,6.52,"Nc1ncnc2c1nc(Sc1cc3occc3cc1Cl)n2CCC1CCN(C=O)CC1 [Example Compound 178, 4-(2-{6-Amino-8-[(5-chloro-1-benzofuran-6-yl)thio]-9H-purin-9-yl}ethyl)piperidine-1-carbaldehyde]"
6,5.40,"Nc1ncnc2c1nc(Sc1cc(Br)c3c(c1)CCO3)n2CCC1CCN(C=O)CC1 [Example Compound 179, 4-(2-{6-Amino-8-[(7-bromo-2,3-dihydro-1-benzofuran-5-yl)thio]-9H-purin-9-yl}ethyl)piperidine-1-carbaldehyde]"
7,6.40,"Nc1ncnc2c1nc(Sc1cc3c(cc1Br)OCC3)n2CCC1CCN(C=O)CC1 [Example Compound 180, 4-(2-{6-Amino-8-[(6-bromo-2,3-dihydro-1-benzofuran-5-yl)thio]-9H-purin-9-yl}ethyl)piperidine-1-carbaldehyde]"
8,5.82,"CC1(C)CCc2cc(Br)c(Sc3nc4c(N)ncnc4n3CCC3CCN(C=O)CC3)cc21 [Example Compound 181, 4-(2-{6-Amino-8-[(6-bromo-3,3-dimethyl-2,3-dihydro-1H-inden-5-yl)thio]-9H-purin-9-yl}ethyl)piperidine-1-carbaldehyde]"
9,< 5.30,"Nc1ncnc2c1nc(Sc1cc(Br)c3occc3c1)n2CCC1CCN(C=O)CC1 [Example Compound 182, 4-(2-{6-Amino-8-[(7-bromo-1-benzofuran-5-yl)thio]-9H-purin-9-yl}ethyl)piperidine-1-carbaldehyde]"
10,5.54,"Nc1ncnc2c1nc(Sc1cc3c(cc1F)OCCO3)n2CCC1CCN(C=O)CC1 [Example Compound 183, 4-(2-{6-Amino-8-[(7-fluoro-2,3-dihydro-1,4-benzodioxin-6-yl)thio]-9H-purin-9-yl}ethyl)piperidine-1-carbaldehyde]"
11,6.51,"CN1CCOc2cc(Br)c(Sc3nc4c(N)ncnc4n3CCC3CCN(C=O)CC3)cc21 [Example Compound 184, 4-(2-{6-Amino-8-[(7-bromo-4-methyl-3,4-dihydro-2H-1,4-benzoxazin-6-yl)thio]-9H-purin-9-yl}ethyl)piperidine-1-carbaldehyde]"
12,6.40,"CN1CCOc2cc(Sc3nc4c(N)ncnc4n3CCC3CCN(C=O)CC3)c(Cl)cc21 [Example Compound 185, 4-(2-{6-Amino-8-[(6-chloro-4-methyl-3,4-dihydro-2H-1,4-benzoxazin-7-yl)thio]-9H-purin-9-yl}ethyl)piperidine-1-carbaldehyde]"
13,7.19,"CN1CCOc2cc(Sc3nc4c(N)ncnc4n3CCC3CCN(C=O)CC3)c(Br)cc21 [Example Compound 186, 4-(2-{6-Amino-8-[(6-bromo-4-methyl-3,4-dihydro-2H-1,4-benzoxazin-7-yl)thio]-9H-purin-9-yl}ethyl)piperidine-1-carbaldehyde]"
14,5.30,"CN1CCOc2cc(Sc3nc4c(N)ncnc4n3CCC3CCN(C=O)CC3)ccc21 [Example Compound 187, 4-(2-{6-Amino-8-[(4-methyl-3,4-dihydro-2H-1,4-benzoxazin-7-yl)thio]-9H-purin-9-yl}ethyl)piperidine-1-carbaldehyde]"
15,6.69,"Nc1ncnc2c1nc(Sc1cc3c(cc1Cl)OCO3)n2CCC1CCN(C=O)CC1 [Example Compound 188, 4-(2-{6-Amino-8-[(6-chloro-1,3-benzodioxol-5-yl)thio]-9H-purin-9-yl}ethyl)piperidine-1-carbaldehyde]"
16,< 5.30,"Nc1ncnc2c1nc(Sc1cc3occc3cc1Br)n2CCC1CCC(F)(F)CC1 [Example Compound 189, 8-[(5-Bromo-1-benzofuran-6-yl)thio]-9-[2-(4,4-difluorocyclohexyl)ethyl]-9H-purin-6-amine]"
17,6.19,"Nc1ncnc2c1nc(Sc1cc3c(cc1Br)OCO3)n2CCC1CCC(F)(F)CC1 [Example Compound 190, 8-[(6-Bromo-1,3-benzodioxol-5-yl)thio]-9-[2-(4,4-difluorocyclohexyl)ethyl]-9H-purin-6-amine]"
18,5.60,"CC(C)(C)OC(=O)N1CCC(CCn2c(Sc3cc4occc4cc3Br)nc3c(N)ncnc32)CC1 [Example Compound 191, tert-Butyl 4-(2-{6-amino-8-[(5-bromo-1-benzofuran-6-yl)thio]-9H-purin-9-yl}ethyl)piperidine-1-carboxylate]"
19,< 5.30,"CC(C)(C)OC(=O)N1CCC(CCn2c(Sc3cc4c(cc3C(F)(F)F)OCC4)nc3c(N)ncnc32)CC1 [Example Compound 192, tert-Butyl 4-[2-(6-amino-8-{[6-(trifluoromethyl)-2,3-dihydro-1-benzofuran-5-yl]thio}-9H-purin-9-yl)ethyl]piperidine-1-carboxylate]"
20,5.37,"CN(C)C(=O)c1cc2c(cc1Sc1nc3c(N)ncnc3n1CCC1CCN(C=O)CC1)OCO2 [Example Compound 193, 6-({6-amino-9-[2-(1-formylpiperidin-4-yl)ethyl]-9H-purin-8-yl}thio)-N,N-dimethyl-1,3-benzodioxole-5-carboxamide]"
21,6.82,"CC(=O)OCC(=O)N1CCC(CCn2c(Sc3cc4occc4cc3Br)nc3c(N)ncnc32)CC1 [Example Compound 194, 2-[4-(2-{6-Amino-8-[(5-bromo-1-benzofuran-6-yl)thio]-9H-purin-9-yl}ethyl)piperidin-1-yl]-2-oxoethyl acetate]"
22,7.35,"Nc1ncnc2c1nc(Sc1cc3occc3cc1Br)n2CCC1CCN(C(=O)CO)CC1 [Example Compound 195, 2-[4-(2-{6-Amino-8-[(5-bromo-1-benzofuran-6-yl)thio]-9H-purin-9-yl}ethyl)piperidin-1-yl]-2-oxoethanol]"
23,6.82,"Nc1ncnc2c1nc(Sc1cc3occc3cc1Br)n2CCC1CCNCC1 [Example Compound 197, 8-[(5-Bromo-1-benzofuran-6-yl)thio]-9-(2-piperidin-4-ylethyl)-9H-purin-6-amine]"
24,6.96,"CC(=O)O[C@@H](C)C(=O)N1CCC(CCn2c(Sc3cc4occc4cc3Br)nc3c(N)ncnc32)CC1 [Example Compound 198, (1S)-2-[4-(2-{6-Amino-8-[(5-bromo-1-benzofuran-6-yl)thio]-9H-purin-9-yl}ethyl)piperidin-1-yl]-1-methyl-2-oxoethyl acetate]"
25,6.72,"C[C@H](O)C(=O)N1CCC(CCn2c(Sc3cc4occc4cc3Br)nc3c(N)ncnc32)CC1 [Example Compound 199, (2S)-1-[4-(2-{6-Amino-8-[(5-bromo-1-benzofuran-6-yl)thio]-9H-purin-9-yl}ethyl)piperidin-1-yl]-1-oxopropan-2-ol]"
26,6.73,"C[C@@H](OC(=O)C(C)(C)C)C(=O)N1CCC(CCn2c(Sc3cc4occc4cc3Br)nc3c(N)ncnc32)CC1 [Example Compound 200, (1R)-2-[4-(2-{6-Amino-8-[(5-bromo-1-benzofuran-6-yl)thio]-9H-purin-9-yl}ethyl)piperidin-1-yl]-1-methyl-2-oxoethyl pivalate]"
27,6.70,"C[C@@H](O)C(=O)N1CCC(CCn2c(Sc3cc4occc4cc3Br)nc3c(N)ncnc32)CC1 [Example Compound 201, (2R)-1-[4-(2-{6-Amino-8-[(5-bromo-1-benzofuran-6-yl)thio]-9H-purin-9-yl}ethyl)piperidin-1-yl]-1-oxopropan-2-ol]"
28,6.40,"C[C@H](O)C(=O)N1CCC(CCn2c(Sc3cc4c(cc3Cl)OCO4)nc3c(N)ncnc32)CC1 [Example Compound 203, (2S)-1-[4-(2-{6-Amino-8-[(6-chloro-1,3-benzodioxol-5-yl)thio]-9H-purin-9-yl}ethyl)piperidin-1-yl]-1-oxopropan-2-ol]"
29,6.40,"C[C@@H](O)C(=O)N1CCC(CCn2c(Sc3cc4c(cc3Cl)OCO4)nc3c(N)ncnc32)CC1 [Example Compound 204, (2R)-1-[4-(2-{6-Amino-8-[(6-chloro-1,3-benzodioxol-5-yl)thio]-9H-purin-9-yl}ethyl)piperidin-1-yl]-1-oxopropan-2-ol]"
